Assay results published in patent US8481738B2, “Gonadotropin-releasing hormone receptor antagonists and methods relating thereto” (Neurocrine Biosciences, Inc., priority 2007, dated 2013).

molecular target: T1, human GnRH receptor (Homo sapiens, UniProt P30968); experiment: Peptide competition radioligand binding displacement assay, human GnRH receptor membranes; details: one or more of the peptide competition human receptor binding assays
T1 construct: expressed in transfected cells; host or cells: RBL cells, stably transfected (in general)
T1 sequence (P30968 1-328): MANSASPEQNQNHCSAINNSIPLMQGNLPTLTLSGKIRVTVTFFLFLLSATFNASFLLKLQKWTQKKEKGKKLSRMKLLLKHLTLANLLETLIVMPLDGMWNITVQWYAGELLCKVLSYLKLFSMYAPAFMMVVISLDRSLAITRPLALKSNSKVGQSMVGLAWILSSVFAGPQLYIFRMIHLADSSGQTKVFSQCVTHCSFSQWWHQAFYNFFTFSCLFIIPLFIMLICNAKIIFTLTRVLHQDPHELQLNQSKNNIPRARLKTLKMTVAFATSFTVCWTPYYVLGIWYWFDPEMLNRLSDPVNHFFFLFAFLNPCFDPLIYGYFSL
Method: cDNA's of human, rhesus macaque, rabbit, dog and rat GnRH receptors are cloned into pcDNA3.1 (+) (Invitrogen). Full length sequences of all receptors are confirmed by DNA sequencing. HEK 293, CHO, COS-7, or rat basophilic leukemia (RBL) cells are stably transfected with human, rat, or macaque GnRH receptors and high expressing single cell clones (Bmax≧0.4 pMol/mg membrane protein) are isolated and maintained in Dulbecco's Modified Eagles Medium (DMEM) with following supplements: 10 mM HEPES; 2 mM L-glutamine; 1 mM Sodium Pyruvate; 50 U/mL penicillin, 50 μg/mL streptomycin; 10% Heat-inactivated Fetal Bovine Serum and 200 μg/mL Geneticin (G-418-Sulfate). Non-essential amino acids (0.1 mM) (Irvine Scientific; Santa Ana, Calif.) are included in the RBL cell media.
In general, initial peptide radioligand binding assays are carried out using membranes from stably transfected RBL cells. RBL stable clones are found to more consistently express high levels of GnRH receptor and are therefore used for subsequent binding studies as well as Ca^++ flux and inositol phosphate accumulation assays. Transiently transfected COS-7 cells are used for preparation of membranes containing GnRH receptors from multiple species (as well as those of mutant receptors for other studies) because of the convenience for rapidly analyzing multiple receptors.
HEK293 cells stably transfected with the human GnRH receptor are grown for two days after achieving confluence then are harvested by striking tissue culture flasks against a firm surface. Cells are collected by centrifugation at 1000 g for 5 minutes. Cell pellets are resuspended in 5% sucrose and homogenized using a polytron homogenizer for two 15 second homogenization steps. Cell homogenates are then centrifuged for 5 minutes at 3000 g to remove nuclei and the supernatant subsequently centrifuged for 30 minutes at 44,000 g to collect the membrane fraction. The membrane pellet is resuspended in GnRH binding buffer (10 mM HEPES, pH 7.5, 150 mM NaCl and 0.1% BSA) and aliquots immediately snap-frozen in liquid nitrogen and stored at −80° C. Protein content of the membrane suspension is determined using the Bio-Rad protein assay kit (Bio-Rad).
RBL cells stably transfected with the human GnRH receptor are grown to 80% confluency prior to harvesting. The cells are incubated at 37° C. for 10 min in 0.5 mM EDTA/PBS (Ca^++, Mg^++ free), and are dislodged from the plate by gentle rapping of the flasks. Cells are collected and pelleted by centrifugation at 1000 g for 5 minutes. Cell pellets are resuspended in buffer (DPBS supplemented with 10 mM MgCl2, 2 mM EGTA, pH=7.4), and cell lysis is performed using a pressure cell and applying N2 at a pressure of 900 psi for 30 min at 4° C. Unbroken cells and larger debris were removed by centrifugation at 1200 g for 10 min at 4° C. The cell membrane supernatant is then centrifuged at 45,000 g and the resulting membrane pellet is resuspended in assay buffer and homogenized on ice using a tissue homogenizer. Protein concentrations are determined using the Coomassie Plus Protein Reagent kit. Membranes are aliquoted and stored at −80° C. until ready for use.
COS-7 cells transiently transfected with GnRH receptors from different species (human, macaque, dog, rabbit, rat) or mutant GnRH receptors are prepared by bulk electroporation. COS-7 cells are obtained from American Type Cell Culture (Manassas, Va.) and are maintained in Dulbeccos's modified Eagle's medium (DMEM) (MediaTech Inc., Herndon, Va.) containing 10% fetal bovine serum, 10 mM HEPES, 2 mM L-glutamine, 1 mM sodium pyruvate, 50 U/mL penicillin, 50 μg/mL streptomycin. COS-7 cells are seeded in 500 cm^2 tissue culture plates and grown to confluency prior to cell transfection. […]

Ki, ≤ 100 nM:
COc1ccccc1N(C)C(=O)c1cc(-c2cnc(C(F)(F)F)cc2C#N)c(Cl)cc1OCCCNC(C)=O [47-3]
CN(C)CCOc1ccccc1N(C)C(=O)c1ccc(Cl)c(-c2cnc(Cl)cc2Cl)c1 [7-1, 4-Chloro-3-(4,6-dichloro-pyridin-3-yl)-N-[2-(2-dimethylamino-ethoxy)-phenyl]-N-methyl-benzamide]
COc1ccccc1N(C)C(=O)c1cc(-c2cnc(C(F)(F)F)cc2C#N)c(Cl)cc1OCCCn1ccnc1 [42-11]
COc1cc(C)c(-c2cc(C(=O)N(C)c3cccc(Cl)c3OC)ccc2Cl)cn1 [2-45]
Cc1cc(Cl)c(-c2cc(C(=O)N(C)c3ccccc3F)ccc2Cl)cn1 [2-37]
COc1ccccc1N(C)C(=O)c1cc(-c2cnc(C(F)(F)F)cc2C#N)c(Cl)cc1OCCN [42-16]
CN(C(=O)c1ccc(Cl)c(-c2ncc(Cl)cc2Cl)c1)c1ccccc1O [19-1, 4-Chloro-3-(3,5-dichloro-pyridin-2-yl)-N-(2-hydroxy-phenyl)-N-methyl-benzamide]
COc1ccccc1N(C)C(=O)c1cc(-c2cnc(C(F)(F)F)cc2C#N)c(Cl)cc1OCCCC(=O)O [34-1, 4-{5-chloro-4-(4-cyano-6-trifluoromethyl-pyridin-3-yl)-2-[(2-methoxy-phenyl)-methyl-carbamoyl]-phenoxy}-butyric acid]
COc1ccccc1N(C)C(=O)c1cc(-c2cnc(C(F)(F)F)cc2C#N)c(Cl)cc1OCCCc1ccncc1 [42-9]
Cc1cc(Cl)ncc1-c1cc(C(=O)N(C)c2ccccc2C)ccc1Cl [2-18]
CN(C(=O)c1cc(-c2cnc(C(F)(F)F)cc2C#N)c(Cl)cc1OCCCC(=O)O)c1ccccn1 [34-18]
Cc1cccc(O)c1N(C)C(=O)c1ccc(Cl)c(-c2cnc(C(F)(F)F)cc2C#N)c1 [8-7]
COc1ccccc1N(C)C(=O)c1cc(-c2cnc(C(F)(F)F)cc2C#N)c(Cl)cc1OCCCN1C(=O)c2ccccc2C1=O [46-4]
COC(=O)c1ccccc1N(C)C(=O)c1ccc(Cl)c(-c2ncc(C)cc2Cl)c1 [2-77]
Cc1cccc(C)c1N(C)C(=O)c1cc(-c2cnc(C(F)(F)F)cc2C#N)c(Cl)cc1OCCCCO [21-4]
COc1ccccc1N(C)C(=O)c1cc(-c2cnc(C(F)(F)F)cc2C#N)c(Cl)cc1OCC(N)CO (stereo not drawn) [42-18]
Cc1cc(C#N)ncc1-c1cc(C(=O)N(C)c2c(C)cccc2OCCCC(=O)O)ccc1Cl [4-8]
CN(C(=O)c1ccc(Cl)c(-c2cnc(C(F)(F)F)cc2C#N)c1)c1cccc(F)c1OCCCC(=O)O [4-12]
Cc1c(Cl)cccc1N(C)C(=O)c1ccc(Cl)c(-n2c(C)cc(C(F)(F)F)nc2=O)c1 [30-12]
Cc1cccc(OCCCC(=O)O)c1N(C)C(=O)c1ccc(Cl)c(-c2ncc(C(F)(F)F)cc2Cl)c1 [5-3]
COc1ccccc1CN(C)C(=O)c1cc(-c2cnc(C(F)(F)F)cc2C#N)c(Cl)cc1OC [39-17]
COc1cc(Cl)c(-c2cnc(C(F)(F)F)cc2C#N)cc1C(=O)N(C)c1ccccc1-c1cnco1 [39-12]
CN(C(=O)c1ccc(Cl)c(-c2cnc(C(F)(F)F)cc2C#N)c1)c1ccccc1OCCc1n[nH]c(=O)o1 [31-1, 4-Chloro-3-(4-cyano-6-trifluoromethyl-pyridin-3-yl)-N-methyl-N-{2-[2-(5-oxo-4,5-dihydro-[1,3,4]oxadiazol-2-yl)ethoxy]-phenyl}-benzamide]
CC(C)OC(=O)OC(C)OC(=O)CCOc1ccccc1N(C)C(=O)c1ccc(Cl)c(-c2cnc(C(F)(F)F)cc2C#N)c1 (stereo not drawn) [37-2, 3-(2-{[4-Chloro-3-(4-cyano-6-trifluoromethyl-pyridin-3-yl)-benzoyl]-methyl-amino}-phenoxy)-propionic acid 1-isopropoxycarbonyloxy-ethyl ester]
Cc1cccc(OCCC(=O)O)c1N(C)C(=O)c1ccc(Cl)c(-c2ccc(C(F)(F)F)cc2C#N)c1 [11-8]
COc1ccc(Cl)cc1N(C)C(=O)c1cc(-c2cnc(C(F)(F)F)cc2C#N)c(Cl)cc1OCCCC(=O)O [34-7]
COc1ccccc1N(C)C(=O)c1ccc(Cl)c(-c2ccc(C#N)nc2)c1 [2-2, 4-chloro-3-(6-cyano-pyridin-3-yl)-N-(2-methoxy-phenyl)-N-methyl-benzamide]
COc1cc(Cl)c(-c2cnc(C(F)(F)F)cc2C#N)cc1C(=O)N(C)c1c(C)cccc1OC [39-10]
Cc1ccccc1N(C)C(=O)c1cc(-c2nc3ccccc3cc2C#N)c(Cl)cc1OCCCC(=O)O [20-3]
Cc1cccc(OCCCC(=O)O)c1N(C)C(=O)c1ccc(Cl)c(-c2cnc(C(F)(F)F)cc2C#N)c1 [4-11]
Cc1cc(C#N)ncc1-c1cc(C(=O)N(C)c2c(C)cccc2OCCC(=O)O)ccc1Cl [11-6]
Cc1cc(Cl)cnc1-c1cc(C(=O)N(C)c2c(C)cccc2C)ccc1Cl [2-63]
COc1c(Cl)cccc1N(C)C(=O)c1ccc(Cl)c(-c2ncc(C)cc2C)c1 [2-70]
COc1cccc(C)c1N(C)C(=O)c1ccc(Cl)c(-c2cnc(C(F)(F)F)cc2C#N)c1 [2-35]
COc1cc(Cl)c(-c2cnc(C(F)(F)F)cc2C#N)cc1C(=O)N(C)c1ncccc1OC [39-13]
Cc1cc(Cl)ncc1-c1cc(C(=O)N(C)c2ccccc2OCC(=O)O)ccc1Cl [4-1, (2-{[4-Chloro-3-(6-chloro-4-methyl-pyridin-3-yl)-benzoyl]-methyl-amino}-phenoxy)-acetic acid]
Cc1cccc(OCCC(=O)O)c1N(C)C(=O)c1ccc(Cl)c(-c2cnc(C(F)(F)F)cc2C#N)c1 [11-7]
CN(C(=O)c1ccc(Cl)c(-c2nc3cccc(F)c3cc2C#N)c1)c1ccccc1OCCCC(=O)O [33-1, 4-(2-{[4-Chloro-3-(3-cyano-5-fluoro-quinolin-2-yl)-benzoyl]-methyl-amino}-phenoxy)-butyric acid]
Cc1cnc(-c2cc(C(=O)N(C)c3cccc(C)c3C)ccc2Cl)c(Cl)c1 [2-67]
COc1ccccc1N(C)C(=O)c1ccc(Cl)c(-c2cnc(C)cc2C)c1 [2-9]
COc1cc(Cl)c(-c2cnc(C(F)(F)F)cc2C#N)cc1C(=O)N(C)c1cc(F)ccc1OC [39-5]
COc1cccc(C)c1N(C)C(=O)c1cc(-c2cnc(C(F)(F)F)cc2C#N)c(Cl)cc1OCC(=O)O [22-9]
COc1cccc(N(C)C(=O)c2ccc(Cl)c(-c3ncc(Cl)cc3Cl)c2)c1 [19-9]
COc1c(Cl)cccc1N(C)C(=O)c1ccc(Cl)c(-c2ncc(Cl)cc2Cl)c1 [19-7]
COc1ccccc1N(C)C(=O)c1cc(-c2cnc(C(F)(F)F)cc2C#N)c(Cl)cc1OCCc1ccccn1 [42-4]
COc1ccccc1N(C)C(=O)c1ccc(Cl)c(-c2cnc(C#N)cc2C)c1 [2-10, 4-chloro-3-(6-cyano-4-methyl-pyridin-3-yl)-N-(2-methoxy-phenyl)-N-methyl-benzamide]
Cc1c(F)cccc1N(C)C(=O)c1ccc(Cl)c(-n2c(C)cc(C(F)(F)F)nc2=O)c1 [30-7]
COc1ccccc1CCOc1cc(Cl)c(-c2cnc(C(F)(F)F)cc2C#N)cc1C(=O)N(C)c1ccccc1OC [46-2]
